Test results reported in ChEMBL document CHEMBL1156829 (Proc Natl Acad Sci U S A, 2008).

Legend:
[1] = system: Plasmodium falciparum; test: NOVARTIS: Inhibition of Plasmodium falciparum 3D7 (drug-susceptible) proliferation in erythrocyte-based infection assay; assay type: functional, organism-based; conditions: Plasmodium falciparum, 3D7
[2] = system: Plasmodium falciparum; test: NOVARTIS: Inhibition of Plasmodium falciparum W2 (drug-resistant) proliferation in erythrocyte-based infection assay; assay type: functional, organism-based; conditions: Plasmodium falciparum, W2; read-out: EC50
[3] = NOVARTIS: Cytotoxicity against human hepatocellular carcinoma cell line (Huh7); assay type: toxicity, cell-based, Huh-7; conditions: Huh7 cells (hepatocellular carcinoma cell line)

| SMILES | EC50 [1] [nM] | EC50 [2] [nM] | CC50 [3] [nM] |
| --- | --- | --- | --- |
| CCN1CCN(c2cc(C)c3cc(NC(=O)c4cc(=O)c5ccccc5o4)ccc3n2)CC1 | 498 | 386 | > 10000 |
| O=C1c2ccccc2-c2nnc(-c3ccccc3)cc21 | 268 | 392 | > 10000 |
| c1ccc(C2CC(C3CC(c4ccccc4)OC(c4ccccc4)C3)CC(c3ccccc3)O2)cc1 (configuration not stated) | 1240 | 394 | > 10000 |
| CN(C)CCNc1cc(-c2ccccc2)nc2ccccc12 | 692 | 819 | 21200 |
| O=C(CCl)NCCOc1ccc(Cl)cc1Cl | 538 | 511 | 13000 |
| CC(=NNC(=S)NN)c1ccccn1 | 1370 | 386 | > 10000 |
| CCOc1ccc2[nH]c(=O)c(CN(CCc3ccccc3)C(=O)c3cnccn3)cc2c1 | > 428 | > 397 | > 10000 |
| COc1ccc(Nc2nc(NN=Cc3cccc(I)c3)nc(Nc3ccc([N+](=O)[O-])cc3)n2)cc1 | 305 | 454 | > 11700 |
| O=C(Nc1ccc(C2=NCCN2)cc1)c1cccc2c(C(=O)Nc3ccc(C4=NCCN4)cc3)cccc12 | 83.9 | 397 | > 10000 |
| COc1cc(NC(=O)Cc2ccccc2OC)cc(OC)c1 | > 1690 | > 386 | > 10000 |
| Cn1nc(C(F)(F)F)c(C(=O)Nc2cccc(C(F)(F)F)c2)c1SCc1ccc(Cl)cc1 | 1010 | 1200 | 31300 |
| COc1cc(CNCCCN(C)C)ccc1OCc1ccc(F)cc1Cl | 92 | 159 | 4160 |
| CC(=O)N1CCN(c2ccc(NC(=S)NC(=O)c3ccc(C)cc3)cc2)CC1 | > 12500 | 3790 | > 95700 |
| O=C(NCCc1ccccc1)c1cnc(NCCC2=CCCCC2)nc1NCC1CCCCC1 | 436 | 395 | > 10000 |
| c1ccc(Nc2ccnc(Nc3ccccc3)n2)cc1 | 804 | 1930 | > 49000 |
| CN1C[C@@H](CSc2ccccn2)C=C2c3cccc4[nH]cc(c34)C[C@H]21 | 226 | 393 | > 10000 |
| Cc1cc(Nc2cccc3ccccc23)nc(Nc2cccc3ccccc23)n1 | 274 | 395 | > 10000 |
| CCOC(=O)COC1=C(CCCCC2CCCCC2)C(=O)c2ccccc2C1=O | 58.1 | 1220 | 31000 |
| CC(C)CCn1nc(C(=O)N2CCOCC2)c2c1CCN(C(=O)c1ccc(N3CCOCC3)cc1)C2 | > 11800 | 3960 | > 100000 |
| Cc1ccccc1[S+]([O-])Cc1ccc(C(=O)N2CCN(c3ccccn3)CC2)o1 (configuration not stated) | > 7130 | 1660 | > 42000 |
| Cc1cc(S(=O)(=O)NC(Cc2ccc([N+](=O)[O-])cc2)C(=O)O)c(Cl)cc1Cl (configuration not stated) | > 1250 | 391 | > 10000 |
| CCN(CC)CCCN(Cc1cc2cc(OC)ccc2[nH]c1=O)C(=S)Nc1cccc(Cl)c1 | 798 | 809 | 20500 |
| O=C(NNc1nc2ccccc2nc1Cl)Nc1ccc(Cl)cc1 | 218 | 306 | 7760 |
| O=C1C(Nc2ccccc2)=C(N2CCCCC2)C(=O)c2ccccc21 | 383 | 590 | 15000 |
| CN(CCCNc1ccnc2cc(Cl)ccc12)C(=O)c1ccccc1 | 723 | 391 | > 10000 |
| O=C1CN(C(=O)CCC2CCCCC2)C(c2ccccc2)c2cc(F)ccc2N1 (configuration not stated) | 1070 | 1300 | 33200 |
| CCN(CC)C(=O)COc1ccccc1CNCc1ccccc1 | > 1250 | 1440 | > 10000 |

| SMILES | EC50 [1] [nM] | EC50 [2] [nM] | CC50 [3] [nM] |
| --- | --- | --- | --- |
| NS(=O)(=O)c1ccc(N/C=C/C(=O)c2ccc(Cl)s2)cc1 | 1830 | > 1250 | > 8690 |
| CCCC(C(=O)NC(C)(C)C)N1C(=O)c2cc(NC(C)=O)ccc2NC(=O)[C@@H]1c1ccccc1 (some centres not stated) | > 65.6 | > 790 | 5450 |
| Cc1ccc(CN2CCN(Cc3ccccc3)CC2)o1 | > 1250 | 1300 | > 8970 |
| CCc1cccc(NS(=O)(=O)c2ccc3[nH]c(=O)c(=O)[nH]c3c2)c1 | > 1040 | > 1450 | > 10000 |
| Cc1oc2c(c1C(=O)NCCCn1ccnc1)C(=O)c1ccccc1C2=O | 90.4 | 39.1 | 270 |
| O=C(Nc1ccc(F)c(F)c1)c1cc2cc(C3(O)CCN(Cc4ccccc4F)CC3)ccc2o1 | 1500 | 1850 | 12800 |
| Cc1ccc(Nc2nc(NN=Cc3ccc(-c4ccc([N+](=O)[O-])cc4)o3)nc(Nc3ccccc3)n2)c(C)c1 | > 824 | 387 | > 10000 |
| CC1CN(C(=O)C(Cc2c[nH]c3ccccc23)NC(=O)C(c2ccccc2)c2ccccc2)CCN1C(=O)NCc1ccccc1 (configuration not stated) | > 1250 | > 391 | > 10000 |
| CCOc1ccc(S(=O)(=O)c2cn(Cc3ccccc3C)c3ccc(OC)cc3c2=O)cc1 | 6270 | 3860 | > 100000 |
| CCc1cc2c(cc1-c1csc(NC(=N)N)n1)C(C)(C)CCC2(C)C | 733 | 961 | 24600 |
| Cc1cc(N2CCN(C/C=C/c3ccccc3)CC2)n2c(nc3ccccc32)c1C#N | 415 | 395 | > 10000 |
| CC(=O)N(C1=C(N2CCOCC2)C(=O)c2ccccc2C1=O)c1cccc(Cl)c1 | 214 | 187 | 4720 |
| CCc1[nH]nc2c1C(Cc1ccccc1)C(C#N)=C(N)O2 (configuration not stated) | > 1250 | 393 | > 10000 |
| CC[n+]1c(C=Cc2ccc(OC)cc2)ccc2ccccc21 | 690 | 1480 | 10300 |
| C[n+]1c(/C=C/c2ccc(Cl)c(Cl)c2)ccc2ccccc21 | 295 | 390 | > 10000 |
| O=C(NCCc1ccc(Cl)cc1)C1CCCN(c2nnc(N3CCCC3=O)s2)C1 (configuration not stated) | > 12500 | 3890 | > 100000 |
| COc1ccc(-c2nc(-c3ccc4c(c3)-c3cc(-c5[nH]c(-c6ccc(OC)cc6)nc5-c5ccccc5)ccc3C4=O)c(-c3ccccc3)[nH]2)cc1 | 7300 | 3750 | 94500 |
| Cc1cc(C)n(-c2ncc(-c3ccc([N+](=O)[O-])cc3)cn2)n1 | > 12500 | 3960 | > 100000 |
| CSc1cccc(NC(=O)C2C3C=CC4(O3)C2C(=O)N(CCN2CCCCC2)C4C(=O)NC2CCCC(C)C2C)c1 (configuration not stated) | > 11100 | 1900 | 48100 |
| COc1cccc(N2CCN(CCNCCc3ccccc3)[C@@H](Cc3ccc(O)cc3)C2)c1 | 564 | 397 | > 10000 |
| OCc1nc2ccccc2n1Cc1ccccc1F | > 1640 | 1450 | > 10000 |
| CCCCCN(C(=O)c1ccc(Br)cc1)C(CC)c1nc2ccccc2c(=O)n1-c1ccccc1OC (configuration not stated) | 1020 | 633 | > 4400 |
| c1ccc(-c2nc(Nc3ccncc3)cc(-c3cccnc3)n2)cc1 | 884 | 1440 | > 10000 |
| CCC(Nc1ccc(OC)cc1)=C1C(=O)CC(C)(C)CC1=O | > 4140 | 3950 | > 100000 |
| COCCCNC(=O)c1c(C)nc2scc(C)n12 | > 1080 | > 1450 | > 10000 |
| CCCNC(=O)c1ccc(OC2CCN(CC(c3ccccc3)c3ccccc3)CC2)c(OC)c1 | 614 | 392 | > 10000 |
| CC(C)(C)c1ccc(C2CC3=Nc4ccccc4N(C(=O)c4ccccc4Cl)C(c4ccc(F)cc4)C3=C(O)C2)cc1 (configuration not stated) | 2630 | 3940 | > 100000 |
